Test results as given in patent publication US20180021347A1, “COMPOSITION FOR THE TREATMENT OF HEPATIC VENO-OCCLUSIVE DISEASE” (priority 2015, published 2018).

Legend:
[1] = cited from earlier work
[2] = human, in vivo; cited from earlier work
[3] = cited from earlier work; remark: listed apart in the source
TSECs [4] = assay: Busulfan-induced death of TSECs (trypan blue cell viability); assay type: cell-based, human
Method: (Cheuk D K et al, Bone Marrow transplant 40: 935-944, 2007). We tested, if the toxicity of busulfan was amenable to in vitro studies on TSECs. Accordingly, we defined the concentration-response curve for busulfan-induced death of TSECs. In analogy to Raimer J et al (EurJClinPharmacol 68: 932-935, 2012), who had used ECV304 cells, we plated TSECs on collagen-coated plastic dishes (5×10^3 cells/24-well plate). After 24 hours, busulfan was added at increasing concentrations (10 μM-1 mM). The concentration range was based on reports in the literature and on the serum levels observed in patients undergoing myeloablative chemotherapy. Cell viability was assessed after 24, 48 and 72 h.
TSECs were plated on collagen-coated plastic dishes (5*10^3 cells/24-well plate). After 24 hours busulfan, a cell cycle non-specific alkylating antineoplastic agent, in the class of alkyl sulfonates with a chemical designation is 1,4-butanediol dimethanesulfonate, used as chemotherapeutic agent and known to induce VOD, was added at increasing concentrations (10 μM-1 mM). The concentration range is based on reports in the literature and on the serum levels observed in patients undergoing myeloablative chemotherapy. Cell viability was assessed after 24, 48 and 72 hours. For this purpose cells were washed twice with PBS, trypsinized, mixed with trypan blue (1:1 volumes) and counted using a hemocytometer. […] The data (means±standard deviation) shown represent cell death after for 48 hours.

TSECs [5] = assay: Yield of RNA/mRNA from TSECs after busulfan and treprostinil; assay type: cell-based, human
Method: In EC340 cells, concentrations as high as 300 μM were tolerated for 96h and allowed for investigating target gene expression and regulation upon treatment with busulfan. This concentration was not compatible with the extraction of mRNA in TSECs: the amount, quality and stability of mRNA were affected in a dose- and time-dependent manner (FIG. 5 and data not shown). […] Based on the time course of gene regulation in EC340 cells, we tested a treatment duration between of a minimum of 12h and a maximum of 96h (data not shown).
Cells were either treated with 125 μM, 250 μM or 300 μM BU, the combination thereof with treprostinil (10 μM), or treprostinil (10 μM) alone, or kept in standard medium [Endothelial Cell Medium, ECM Sciencell™, USA, TSECs containing 5% fetal bovine serum, 1% endothelial cell growth supplement (ECGS) and 1% penicillin/streptomycin at 37° C. and 5% CO2]. a) Total RNA was extracted by Trizol® (lifetechnologies) according to the manufacturer's protocol. RNA concentration (ng/μl) and purity was determined with Nanodrop 2000®. If equal numbers of cells (1.6×10^5) were seeded per well, treatment with 250 and 300 μM BU induced cell death in as much rendering reproducible and valid yields of absolute RNA content impossible, already after 48h of treatment. b) The absolute yield in RNA preparations (μg/μl) was compared between cells, which had been incubated in standard medium (untreated), and cells, which had been treated with BU (125 or 250 μM BU) plus treprostinil (10 μM Trep), or treprostinil alone.

[6] = system: plasminogen-activator inhibitor-1 (PAI-1); assay: qPCR of candidate target gene mRNA in TSECs: PAI-1; assay type: cell-based, human
Method: (§1) After pretreatment of TESCs with 10 μM treprostinil for 1 h, cells were co-incubated with 10 μM treprostinil and 125 μM BU for 24 h. Total RNA was extracted by the use of PARIS Kit (life technologies). cDNA synthesis was performed by High-Capacity Reverse Transcription Kit (applied biosystems); the resulting cDNA (equivalent to 50 ng RNA/reaction) was analyzed via qPCR (StepOnePlus real-time PCR System®, Applied Biosystems). 18s rRNA was used as a reference gene.
(§2) Based on preliminary experiments we identified plasminogen-activator inhibitor-1 (PAI-1), tissue factor (TF), tissue factor pathway inhibitor (TFPI) and thrombomodulin (TM) as suitable genes to study the potential of treprostinil to counteract busulfan-induced effects in TSECs. We also tested if busulfan-mediated effects are counteracted by 10 μM treprostinil. A total of 1.5×10^5 TESCs were plated in 6 well plates. As soon as 90% confluence was reached, cells were pretreated with treprostinil for 1 h, then cells were incubated for 24h in standard culture medium containing both BU and treprostinil. Thereafter, cells were washed and mRNA was prepared. Treprostinil counteracted the busulfan-induced increased expression of procoagulatory factors such as PAI-1 and TF (data not shown). […]

tissue factor (TF) = assay: qPCR of candidate target gene mRNA in TSECs: TF; assay type: cell-based, human
Method: as §1, §2

thrombomodulin (TM) = assay: qPCR of candidate target gene mRNA in TSECs: TM; assay type: cell-based, human; conditions: data not shown
Method: as §1, §2

[7] = system: tissue factor pathway inhibitor (TFPI); assay: qPCR of candidate target gene mRNA in TSECs: TFPI; assay type: cell-based, human
Method: as §1
Based on preliminary experiments we identified plasminogen-activator inhibitor-1 (PAI-1), tissue factor (TF), tissue factor pathway inhibitor (TFPI) and thrombomodulin (TM) as suitable genes to study the potential of treprostinil to counteract busulfan-induced effects in TSECs. We also tested if busulfan-mediated effects are counteracted by 10 μM treprostinil. A total of 1.5×10^5 TESCs were plated in 6 well plates. As soon as 90% confluence was reached, cells were pretreated with treprostinil for 1 h, then cells were incubated for 24h in standard culture medium containing both BU and treprostinil. Thereafter, cells were washed and mRNA was prepared. Treprostinil counteracted the busulfan-induced increased expression of procoagulatory factors such as PAI-1 and TF (data not shown). […] These observations justify the use of TSECs as an in vitro model system to study surrogate parameters, which are predictive of an increased risk of VOD in vivo.
Treatment of TESCs was performed as indicated in the legend to FIG. 6. Treprostinil-treatment was initiated 1 h prior to addition of busulfan. Cells were collected 24 h later.

EC340 cells = conditions: 96h; cited from earlier work
EP3-receptors = molecular target: T1, EP3-receptors (Homo sapiens, UniProt P43115); conditions: inhibitory Gi-coupled EP3-receptors; cited from earlier work
T1 sequence (P43115 1-390): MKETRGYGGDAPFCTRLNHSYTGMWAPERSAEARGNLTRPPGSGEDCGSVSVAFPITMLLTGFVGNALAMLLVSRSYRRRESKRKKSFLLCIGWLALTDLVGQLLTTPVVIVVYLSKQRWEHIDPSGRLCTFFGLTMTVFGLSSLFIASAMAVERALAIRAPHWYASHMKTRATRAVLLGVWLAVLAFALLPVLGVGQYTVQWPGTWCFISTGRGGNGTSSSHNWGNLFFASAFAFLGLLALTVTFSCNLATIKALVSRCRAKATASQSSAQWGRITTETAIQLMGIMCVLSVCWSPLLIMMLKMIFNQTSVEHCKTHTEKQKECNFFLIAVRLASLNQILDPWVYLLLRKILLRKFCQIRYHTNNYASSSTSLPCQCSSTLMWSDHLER

TSECs [8] = assay: Attenuation by treprostinil of busulfan-induced cell death in TSECs; assay type: cell-based, human
Method: TSECs were pretreated with treprostinil (10 μM) for 1 h and examined, if this protected them against busulfan-induced cell death by challenging them—in the continuous presence of treprostinil—with 125 and 250 μM and 500 μM Busulfan (BU). After 24 h, cell viability was determined by counting detached cells in a haemocytometer and determining the number of trypan blue-positive (=dead) and trypan-blue excluding (=live) cells.
TSECs were plated on collagen-coated plastic dishes (5*10^3 cells/24-well plate). After 24 hours treprostinil was added at a concentration of […]. One hour later, busulfan was added at increasing concentrations. Cell viability was assessed after 48 hours.
We examined the concentration range, in which treprostinil protected TSECs against busulfan-induced cell death. TSECs were plated on collagen-coated plastic dishes and after 24 h treprostinil was added at concentrations of 5, 10 and 20 pM. One hour later, busulfan was added at concentrations of 125 and 250 μM. Cell viability was assessed after 48 h. […] The data were analyzed using a 2-way ANOVA.
TSECs were plated on collagen-coated plastic dishes (5*10^3 cells/24-well plate). After 24 hours treprostinil was added at concentrations of 5, 10 and 20 pM. One hour later, busulfan was added at concentration of 125 and 250 μM. Cell viability was assessed after 48 hours. Even low concentrations of treprostinil (5 μM) attenuated busulfan induced cell death. […] The data were analyzed by two-way ANOVA. A Bonferroni post hoc test was conducted to test for differences between individual treatment groups.

[9] = system: intracellular cAMP levels in TSECs; assay: cAMP accumulation in TSECs; assay type: cell-based, human; conditions: 1 h
Method: It is desirable to understand the mechanisms, which allow treprostinil to modulate busulfan-induced gene expression, because this allows for searching for additional target genes. It was assumed that the action of treprostinil is mediated by an increased accumulation of cAMP. […] This was seen both, in the presence of 30 μM forskolin ([…], left hand panel) and if the concentration of forskolin was titrated between 1 and 30 μM (FIG. 6, middle and right hand panel). It was also seen regardless of whether [^3H]cAMP was low (FIG. 6, middle panel) or high (FIG. 6, right hand panel).
Control cells were incubated in standard medium. For comparison, cAMP accumulation was also assessed after incubation with dmPGE2. […] In the third experiment, the response was higher, presumably due to more extensive labelling of the adenine nucleotide pool. However, in none of the experiments tested, treprostinil alone sufficed to increase intracellular cAMP levels over that seen in untreated control cells.

EP2-receptors = EP2-receptors (Homo sapiens, UniProt P43116); conditions: cited from earlier work
EP4-receptors = EP4-receptors (Homo sapiens, UniProt P35408); conditions: cited from earlier work
[10] = 10 μM treprostinil 1 h pretreatment, then with 125 μM BU for 24 h, data not shown

EP2-receptors, sequence (P43116 whole entry): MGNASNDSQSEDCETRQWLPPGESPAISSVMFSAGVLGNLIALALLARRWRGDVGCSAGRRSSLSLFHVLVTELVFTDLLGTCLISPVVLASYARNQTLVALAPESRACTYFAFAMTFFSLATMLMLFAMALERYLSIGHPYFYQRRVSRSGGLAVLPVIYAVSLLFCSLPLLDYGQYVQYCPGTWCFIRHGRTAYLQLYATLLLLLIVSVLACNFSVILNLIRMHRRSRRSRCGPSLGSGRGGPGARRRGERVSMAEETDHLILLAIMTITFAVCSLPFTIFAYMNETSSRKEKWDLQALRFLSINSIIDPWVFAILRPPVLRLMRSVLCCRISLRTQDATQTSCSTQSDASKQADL
EP4-receptors, sequence (P35408 whole entry): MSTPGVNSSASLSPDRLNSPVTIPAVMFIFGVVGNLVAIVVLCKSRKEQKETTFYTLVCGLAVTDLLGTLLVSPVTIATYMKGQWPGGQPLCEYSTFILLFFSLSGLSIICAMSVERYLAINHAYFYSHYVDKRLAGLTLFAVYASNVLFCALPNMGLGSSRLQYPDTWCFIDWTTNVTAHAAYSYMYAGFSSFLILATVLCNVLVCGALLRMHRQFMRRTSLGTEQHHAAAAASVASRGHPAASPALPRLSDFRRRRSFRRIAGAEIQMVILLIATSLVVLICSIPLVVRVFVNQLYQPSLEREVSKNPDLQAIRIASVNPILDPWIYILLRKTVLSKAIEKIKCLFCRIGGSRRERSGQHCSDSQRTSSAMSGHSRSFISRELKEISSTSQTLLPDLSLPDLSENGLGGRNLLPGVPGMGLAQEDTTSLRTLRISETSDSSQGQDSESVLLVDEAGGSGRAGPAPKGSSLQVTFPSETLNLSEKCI

Compound: CCCCC[C@H](O)/C=C/[C@@H]1[C@H]2C/C(=C/CCCC(=O)O)O[C@H]2C[C@H]1O [Flolan]
- serum half-life [1]: very short
- maximum tolerable dosage [2]: 5 to 8 ng/kg/day

Compound: CCCCC[C@H](O)/C=C/[C@H]1[C@H](O)CC(=O)[C@@H]1CCCCCCC(=O)O [PGE1, prostaglandin E1]
- advantage in VOD ([3]; PGE1 alone (Senzolo M. et al., 2007)): failed to show any advantage

Compound: CS(=O)(=O)OCCCCOS(C)(=O)=O [busulfan, 1,4-butanediol dimethanesulfonate]
- cell death of TSECs, concentration dependence (TSECs [4]; busulfan 10 μM-1 mM, 48 hours, absence of hepatocytes (FIG. 2)): induced cell death in a concentration dependent manner
- cell death of TSECs (TSECs [4]; busulfan 10 μM-1 mM, after 24 h): No obvious cell death
- cell death of TSECs (TSECs [4]; busulfan, also at lower concentrations, after 72 h): almost complete cell death
- highest busulfan concentration allowing harvest of mRNA of adequate quality for qPCR (TSECs [5]; 48 h pretreatment of TSECs): 125 µM
- yield of RNA compared to untreated cells (100%) (TSECs [5]; busulfan 125 μM for 48h): 85%
- yield of RNA compared to untreated cells (100%) (TSECs [5]; busulfan 250 μM for 48h): 74%
- PAI-1 expression ([6]; busulfan 125 μM, 24 h): induces the expression
- TF expression (tissue factor (TF); busulfan 125 μM, 24 h): induces the expression
- thrombomodulin (TM) expression (thrombomodulin (TM); busulfan 125 μM, 24 h): decreased the expression
- expression of TFPI ([7]; busulfan): induced
- tolerated concentration (EC340 cells): ≤ 300 µM

Compound: CCCCC(C)(C)[C@H](O)/C=C/[C@H]1[C@H](O)CC(=O)[C@@H]1C/C=C\CCCC(=O)O [dimethyl-PGE2]
- agonism at EP3-receptors (EP3-receptors): full agonist

Compound: CCCCC[C@H](O)/C=C/[C@H]1[C@H](O)CC(=O)[C@@H]1C/C=C\CCCC(=O)O [prostaglandin E2]
- incidence of VOD ([3]; in combination with heparin (Senzolo M. et al., 2007)): lower incidence of VOD

Compound: CCCCC[C@H](O)CC[C@@H]1[C@H]2Cc3cccc(OCC(=O)[O-])c3C[C@H]2C[C@H]1O.[Na+] [treprostinil, (1R,2R,3aS,9aS)-[[2,3,3a,4,9,9a-hexahydro-2-hydroxy-1-[(3S)-3-hydroxyoctyl]-1H-benz[f]inden-5-yl]oxy]acetic acid monosodium salt]
- concentration close to saturation of protection against busulfan-induced cell death (TSECs [8]; busulfan 125 and 250 μM, 48 h): 10 µM
- cell viability (TSECs [8]; treprostinil 10 pM added 1 hour before busulfan 125 and 250 μM, 48 hours): increased viability
- effect on busulfan-induced cell death (TSECs [8]; treprostinil 5 μM, busulfan 125 and 250 μM, 48 h): attenuated busulfan-induced cell death
- effect on BU-induced toxicity (cell viability) (TSECs [8]; treprostinil 10 μM, 1 h pretreatment, busulfan 125, 250 and 500 μM, after 24 h, three independent experiments): attenuated BU-induced toxicity
- beneficial effect on busulfan induced cell death at higher concentrations (TSECs [8]; treprostinil above 5 μM (10 and 20), busulfan 125 and 250 μM, 48 hours): did not increase at higher concentrations
- loss in RNA yield (TSECs [5]; busulfan plus 10 μM treprostinil, pretreated 1 hour and co-incubated 24 h): 11%
- RNA content compared to control cells (TSECs [5]; treprostinil alone (10 μM), 5 independent RNA preparations): 111%
- effect on busulfan-induced increased expression of PAI-1 [6, 10]: counteracted
- effect on busulfan-induced increased expression of TF (tissue factor (TF); [10]): counteracted
- effect on busulfan-induced decrease of TM expression (thrombomodulin (TM); 10 μM treprostinil 1 h pretreatment, then with 125 μM BU for 24 h): mitigated the effect of busulfan
- expression of TFPI ([7]; treprostinil): induced
- regulation of expression of mRNA of TFPI, concentration dependence ([7]; treprostinil in TESCs): concentration-dependent manner
- intracellular cAMP levels ([9]; sole addition of treprostinil): did not suffice to increase intracellular cAMP levels
- intracellular cAMP levels ([9]; treprostinil 10 μM, cells sensitized with forskolin (1 to 30 μM)): further increased intracellular cAMP levels
- agonism at EP3-receptors (EP3-receptors): low affinity agonist
- stimulation of EP2-receptors (EP2-receptors): selectively stimulates
- stimulation of EP4-receptors (EP4-receptors): selectively stimulates
